One series deals with AD38 cells. The series can be described thus: Viability of AD38 cells (Promega CellTiter-Glo) at the end of compound treatment. Format: cell-based. To be noted: 10 μM compound, 6 days, luminescence normalized against DMSO control wells (controls being 100%). The method in brief:
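AD38 cells seeded at 50,000/well received compound from a 10× solution in 10% DMSO and were incubated 6 days at 37° C. Viability was then read by CellTiter-Glo luminescence in tetracycline-free medium with 2% FBS and 1% DMSO, normalized to DMSO control wells (100%) and reported as percent viability.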
(Cellular ATP, detected with luciferase, serves as a proxy for viable cell number.)

Series [1] has as its system HBV viral production in AD38 cells. As to the kind of experiment: Viral load production in AD38 cells by quantitative PCR of the HBV core sequence in supernatant. To be noted: Hepatitis B virus, 144 h; 10 μM compound, 6 days at 37° C., viral load in supernatant compared against DMSO control wells; read-out: AD38 Viral Load (CpAM/DMSO %) at 10 μM. Format: cell-based. The method in brief:
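AD38 cells seeded at 50,000/well, treated 6 days at 37° C with compound added as 10× solution in 10% DMSO. HBV core sequence in clarified supernatant quantified by TaqMan qPCR against known standards; viral load compared with DMSO control wells.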

On to `O=C(Nc1cccc(-c2cccc(O)c2)c1)c1ccc2c(c1)NC(=O)c1cc(F)ccc1S2` [Compound 1468], for which, in the series with AD38 cells, the “AD38 Viability Normalized Result (CPAM/DMSO %) at 10 μM” value turned out to be 97%. In addition, the activity at 10 µM in series [1] is 76%.
The like results for `O=C(NCCc1ccccn1)c1ccc2c(c1)NC(=O)c1c(F)cccc1S2` [Compound 1471] were, in that order, 97% and 16%.
The like results for `O=C(Nc1cccc(-c2ccccc2)c1)c1ccc2c(c1)NC(=O)c1c(F)cccc1S2` [Compound 1472] were, in that order, 95% and 37%.
The like results for `O=C1Nc2cc(S(=O)(=O)NCc3cncnc3)ccc2Sc2ccccc21` [Compound 1473] were, in that order, 97% and 81%.
Take `O=C(NCCc1ccccn1)c1ccc2c(c1)NC(=O)c1ccccc1N2Cc1ccccc1` [Compound 1474]: the “AD38 Viability Normalized Result (CPAM/DMSO %) at 10 μM” value in the series on AD38 cells was 101%. Moreover, the activity at 10 µM in series [1] amounted to 51%.
Take `O=C(NCCc1cccnc1)c1ccc2c(c1)NC(=O)c1ccccc1N2Cc1ccccc1` [Compound 1475]: the “AD38 Viability Normalized Result (CPAM/DMSO %) at 10 μM” value in the series with AD38 cells is reported as 107%. Besides, in series [1], the activity at 10 µM was determined as 47%.
Take `O=C(NCCc1ccc(-c2ccccc2)cc1)c1ccc2c(c1)NC(=O)c1ccccc1[S+]2[O-]` (stereo not shown) [Compound 1476]: in the series with AD38 cells, the “AD38 Viability Normalized Result (CPAM/DMSO %) at 10 μM” value is reported as 86%. In addition, in series [1], the activity at 10 µM came to 1%.
The like results for `CN(C)S(=O)(=O)c1ccc(CCNC(=O)c2ccc3c(c2)NC(=O)c2c(F)cccc2S3)cc1` [Compound 1477] were, in that order, 16% and 67%.
The like results for `Cc1c(C(=O)NCc2cncnc2)ccc2c1NC(=O)c1ccccc1S2` [Compound 1478] were, in that order, 94% and 2%.
The like results for `O=C(Nc1ncc(-c2ccccc2)o1)c1ccc2c(c1)NC(=O)c1cc(F)ccc1S2` [Compound 1480] were, in that order, 95% and 72%.
As to `O=C(Nc1ncc(-c2ccccc2)s1)c1ccc2c(c1)NC(=O)c1cc(F)ccc1S2` [Compound 1481], in the series with AD38 cells, the “AD38 Viability Normalized Result (CPAM/DMSO %) at 10 μM” value came out at 100%. Further, the activity at 10 µM in series [1] was determined as 46%.
The like results for `O=C(NCc1cncnc1)c1ccc2c(c1)NC(=O)c1ccccc1N2Cc1ccccc1` [Compound 1482] were, in that order, 98% and 46%.
The like results for `O=C(NCCc1ccc(-c2ccccc2)cc1)c1ccc2c(c1)NC(=O)c1ccccc1N2Cc1ccccc1` [Compound 1483] were, in that order, 98% and 65%.
The like results for `O=C(Nc1cccc(-c2ccccc2)c1)c1ccc2c(c1)NC(=O)c1ccccc1N2Cc1ccccc1` [Compound 1484] were, in that order, 100% and 26%.
`O=C(NCCc1cnco1)c1ccc2c(c1)NC(=O)c1ccccc1[S+]2[O-]` (stereo not shown) [Compound 1485]: in the series on AD38 cells, the “AD38 Viability Normalized Result (CPAM/DMSO %) at 10 μM” value amounted to 96%. Also, the activity at 10 µM in series [1] is 30%.
The like results for `CN(C)S(=O)(=O)c1ccc(CCNC(=O)c2ccc3c(c2)NC(=O)c2ccccc2[S+]3[O-])cc1` (stereo not shown) [Compound 1486] were, in that order, 94% and 53%.
In the case of `O=C(NCCc1cnco1)c1ccc2c(c1)NC(=O)c1cccc(F)c1S2` [Compound 1487], the “AD38 Viability Normalized Result (CPAM/DMSO %) at 10 μM” value in the series with AD38 cells was 96%. Besides, the activity at 10 µM in series [1] was 15%.
The like results for `CN(C)S(=O)(=O)c1ccc(CCNC(=O)c2ccc3c(c2)NC(=O)c2cccc(F)c2S3)cc1` [Compound 1488] were, in that order, 97% and 84%.
`O=C(NCc1cccnc1)c1ccc2c(c1)NC(=O)c1c(F)cccc1S2` [Compound 1490]: in the series on AD38 cells, the “AD38 Viability Normalized Result (CPAM/DMSO %) at 10 μM” value came out at 79%. The activity at 10 µM in series [1] is 7%.
The like results for `O=C(NCCc1ccc(-c2ccccc2)cc1)c1cc2c(cc1F)Sc1ccccc1C(=O)N2` [Compound 1491] were, in that order, 80% and 39%.
The like results for `O=C(NCc1cnco1)c1ccc2c(c1)NC(=O)c1ccccc1N2Cc1ccccc1` [Compound 1492] were, in that order, 79% and 39%.
The like results for `O=C(NCc1cccnc1)c1ccc2c(c1)NC(=O)c1ccccc1N2Cc1ccccc1` [Compound 1493] were, in that order, 80% and 51%.
Consider `O=C(Nc1ccncc1)c1ccc2c(c1)NC(=O)c1ccccc1N2Cc1ccccc1` [Compound 1494], for which the “AD38 Viability Normalized Result (CPAM/DMSO %) at 10 μM” value in the series with AD38 cells was 60%. The activity at 10 µM in series [1] turned out to be 115%.
The like results for `Cc1c(C(=O)NCCc2ccc(-c3ccccc3)cc2)ccc2c1NC(=O)c1ccccc1S2` [Compound 1495] were, in that order, 77% and 9%.
The like results for `Cc1c(C(=O)Nc2cccc(-c3ccccc3)c2)ccc2c1NC(=O)c1ccccc1S2` [Compound 1496] were, in that order, 18% and 2%.
Turning to `O=C1Nc2c(cc(F)c(C(=O)NCCc3ccc(-c4ccccc4)cc3)c2F)Sc2ccccc21` [Compound 1497], in the series on AD38 cells, the “AD38 Viability Normalized Result (CPAM/DMSO %) at 10 μM” value worked out at 49%. Besides, the activity at 10 µM in series [1] turned out to be 9%.
On to `CN1c2ccc(C(=O)NCCc3ccccn3)cc2NC(=O)c2ccccc21` [Compound 1498], for which the “AD38 Viability Normalized Result (CPAM/DMSO %) at 10 μM” value with AD38 cells was found to be 82%. Moreover, the activity at 10 µM in series [1] turned out to be 1%.
The like results for `CN1c2ccc(C(=O)NCc3cccnc3)cc2NC(=O)c2ccccc21` [Compound 1499] were, in that order, 84% and 2%.
In the case of `O=C1Nc2cc(COCCc3ccccc3)ccc2Sc2ccccc21` [Compound 1501, 8-(phenethoxymethyl) dibenzo [b,f] [1,4] thiazepin-11(10H)-one], the “AD38 Viability Normalized Result (CPAM/DMSO %) at 10 μM” value in the series on AD38 cells amounted to 71%. Besides, the activity at 10 µM in series [1] was 37%.
The like results for `Cc1nnc(NC(=O)c2ccc3c(c2)NC(=O)c2cc(F)ccc2S3)o1` [Compound 1503] were, in that order, 87% and 40%.
The like results for `O=C1Nc2cc(S(=O)(=O)Nc3cncnc3)ccc2Sc2ccccc21` [Compound 1505] were, in that order, 85% and 81%.
The like results for `O=C1Nc2cc(S(=O)(=O)Nc3cncnc3)ccc2[S+]([O-])c2ccccc21` (stereo not shown) [Compound 1506] were, in that order, 85% and 72%.
Consider `CN(C)S(=O)(=O)c1ccc(CCNC(=O)c2cc3c(cc2F)Sc2ccccc2C(=O)N3)cc1` [Compound 1507], for which, in the series with AD38 cells, the “AD38 Viability Normalized Result (CPAM/DMSO %) at 10 μM” value turned out to be 96%. The activity at 10 µM in series [1] amounted to 11%.
The like results for `O=C(Nc1ccncc1)c1cc2c(cc1F)Sc1ccccc1C(=O)N2` [Compound 1508] were, in that order, 81% and 31%.
The like results for `O=C(Nc1cccc(-c2ccccc2)c1)c1cc2c(cc1F)Sc1ccccc1C(=O)N2` [Compound 1509] were, in that order, 29% and 15%.

For the origin of these results see patent US10183936B2, “Hepatitis B core protein allosteric modulators” (priority 2014, dated 2019).
